Source: ChEMBL document CHEMBL1129759, “A comparative study of the solvolysis reactivity, regioselectivity, and stereochemistry of the duocarmycin a and sa alkylation subunits” (Bioorg Med Chem Lett, 1996)
pIC50: −log10 of the molar value.

Experiments:
[1] = Half-life […] at pH 3.0; type: ADME, cell-free
L1210 [2] = assay: Compound was tested for its anti tumor activity against L1210 cells; type: functional, cell-based; conditions: Mus musculus
L1210 [3] = assay: The compound was tested for its anti tumor activity against L1210 cells; type: functional, cell-based; conditions: Mus musculus

Structure (SMILES) | half-life [1] | pIC50 (L1210 [2]) | pIC50 (L1210 [3])
COC(=O)c1cc2c([nH]1)C(=O)C=C1N(C(=O)OC(C)(C)C)C[C@H]3C[C@]123 | 177 h | 8.22 | 
Cc1c[nH]c2c1[C@@]13C[C@@H]1CN(C(=O)OC(C)(C)C)C3=CC2=O | 37 h |  | 6.48
COC(=O)[C@]1(C)N=C2C(=O)C=C3N(C(=O)OC(C)(C)C)C[C@H]4C[C@@]34C2=C1O | 11 h | 5.70 | 
